Literature values, collected in article PMC3461336 (Biomacromolecules, 2012).

Settings: without dpA3

## CC(=O)O[C@H]1C(=O)[C@@]2(C)[C@H]([C@H](OC(=O)c3ccccc3)[C@]3(O)C[C@H](OC(=O)[C@H](O)[C@@H](NC(=O)c4ccccc4)c4ccccc4)C(C)=C1C3(C)C)[C@]1(OC(C)=O)CO[C@@H]1C[C@@H]2O [PAX, Paclitaxel]
  PAX solubility in aqueous solvents: < 0.1 µg/mL
